Experimental data taken from patent publication US5572996A, “In vivo pharmacokinetics of photosensitive drugs and method” (PDT Systems, Inc., priority 1996, dated 1996).
Read-outs that look alike come from different tables or passages of the source.

Columns and labels:
[1] = set-up: species or system Spraig Dawley Rats; details: rat, in vivo
Method: (§1) Twenty-four hours prior to measurement the animals were injected either with a control solution, (carrier vehicle), or various concentrations of the exogenous chromophore, tin ethyl etiopurpurin, (SnET2). SnET2 is a synthetic chlorophyll analogue used in photodynamic light therapy (PDT) that has a relatively weak fluorescence emission, (Quantum yield of 0.01), an emission peak at 670 nm, and a maximum absorption/excitation at 440 nm. At measurement time the animals where anesthetized and then surgically opened to allow measurement of the fluorescence in various tissues. The measurement system used had the following characteristics:
(a) A single fiber was used to deliver excitation light;
(b) Excitation light was derived from a HeCd laser at 442 nm, […] total power delivered to the tissue;
(c) The excitation light was delivered to the target tissue by means of a fiber optic. Fluorescent light emitted by both exogenous and endogenous chromophores in the target tissue was conducted back to the measuring instrument by means of a bundle of smaller optical fibers surrounding the fiber delivering excitation light to the target tissue. Some of these fiber where directed to one PMT (photomultiplier tube) detector filtered for a 570 nm endogenous autofluorescence while the others (12 fibers) were coupled to a PMT filtered at 670 nm for detecting the SnET2 emission;
(d) Autoranging of the gains of the PMTs over five decades;
(e) A display of the 570 (Autofluorescence), 670 (SnET2),signals and the ratio of the two;
(f) An internal reference standard for setting the gain of each PMT prior to each use;
(g) Computer data storage.
The system operates by a foot paddle or a panel button. Activating either one causes the 23 system to take a reading in 1.6 seconds and store it in the display and computer memory. Prior to each use the illuminating probe excitation output is set to 1 mw but this is not necessary due to the ratioing concept.
(§2) A small correction can be made for the endogenous autofluorescence by subtracting the control values from the drug containing tissue to give a NET RATIO. This method permits compensation for background tissue difference while permitting accurate and sensitive measurement of the exogenous chromophore presence in the tissue. Chemical extraction of the SnET2 from the tissue allows correlation of the in-vivo drug concentration to the Ratio signal as shown in Table 3 below. Such a correlation would not be accurate or easily done with out using the Ratio concept.

[2] = set-up: species or system Spraig Dawley Rats; details: rat, in vivo, 24 h
Method: as §1, §2

skin cancers [3] = assay: In vivo fluorescence kinetics in a human subject with skin cancers (tumor and normal sites); details: 0.4 mg/kg SnET2, human subject
Method: (§3) FIG. 1 presents data from an actual human subject injected with SnET2 for the treatment of a number of skin cancers. A number of normal i.e. control sites, and tumor sites were measured prior to the SnET2 injection, (0.4 mg/kg) and at various times post injection. […] In summary, it is clear from the data provided that the method employing the measurement of the intensity of the exogenous chromophore fluorescence to the autofluorescence of a tissue provide a more accurate means for measuring the pharmacokinetics of an exogenous fluorescing chromophore in vivo. The finding is novel and to the inventor's knowledge has not been taught or acknowledged by others either in a patent or publication. Though the method was discovered and developed during the performance of work associated with photodynamic diagnosis and therapy, the utilization of the present method extends to other types of phototherapy. Any application requiring the in vivo monitoring of rate of change of concentration of a fluorescence chromophore in a tissue could use the present method. For example the in vivo pharmacokinetics of fluorescence labeled monoclonal antibodies for diagnostic or therapeutic application, and certain fluorescent antibiotics such as tetracycline, detection of highly proliferating atherosclerosis, among others. […]

skin cancers [4] = assay: Photodynamic therapeutic response to red light in a human subject; format: in vivo; details: 0.4 mg/kg SnET2, human subject
Method: as §3

Net Ratio, kidney ([1]; 1 mg/kg): 1.73 ± 0.42
Net Ratio, liver ([1]; 1 mg/kg): 17.8 ± 2.15
Net Ratio, kidney ([1]; 2 mg/kg): 2.48 ± 0.14
Net Ratio, liver ([1]; 2 mg/kg): 30.0 ± 5.5
Net Ratio, kidney ([1]; 4 mg/kg): 4.24 ± 0.90
Net Ratio, liver ([1]; 4 mg/kg): 50.1 ± 12.8
Extraction (tissue drug concentration), kidney ([2]; 1 mg/kg): 1.87 ± 0.14 µg/g
Extraction (tissue drug concentration), liver ([2]; 1 mg/kg): 13.2 ± 0.91 µg/g
Extraction (tissue drug concentration), kidney ([2]; 2 mg/kg): 3.56 ± 0.11 µg/g
Extraction (tissue drug concentration), liver ([2]; 2 mg/kg): 27.2 ± 2.5 µg/g
Extraction (tissue drug concentration), kidney ([2]; 4 mg/kg): 5.49 ± 0.54 µg/g
Extraction (tissue drug concentration), liver ([2]; 4 mg/kg): 59.2 ± 8.9 µg/g
SnET2 fluorescence at 670 nm with site and time (FIG. 2) (skin cancers [3]; unratioed signal): greatly varies with site and time
Structure (SMILES): CCOC(=O)C1=Cc2c3nc(cc4nc(cc5[n-]c(cc6[n-]c2c(C)c6CC)c(C)c5CC)C(C)=C4CC)[C@@H](C)[C@]13CC.[Cl-].[Cl-].[Sn] (racemic) [SnET2, tin ethyl etiopurpurin]
drug uptake in tumors versus control/normal sites (Net Ratio, FIG. 3) (skin cancers [3]): the tumors take up the drug significantly more than the control/normal sites
response to red light exposure (skin cancers [4]): gave a response correlating to the magnitude of the ratio signal
